Where two headings read alike, the source gives them in different places.
Experiments:
[1] = Liver S9 Fraction Stability Assay
[2] = molecular target: T1, human PR ligand-binding domain tagged with GST [PR-LBD (GST)] (Homo sapiens, UniProt P06401); assay: PR fluorescence polarization (FP) binding assay; details: Fluormone PL Green
T1 construct: purchased Life Technologies (Carlsbad, Calif.)
T1 sequence (P06401 679-913 limits assumed): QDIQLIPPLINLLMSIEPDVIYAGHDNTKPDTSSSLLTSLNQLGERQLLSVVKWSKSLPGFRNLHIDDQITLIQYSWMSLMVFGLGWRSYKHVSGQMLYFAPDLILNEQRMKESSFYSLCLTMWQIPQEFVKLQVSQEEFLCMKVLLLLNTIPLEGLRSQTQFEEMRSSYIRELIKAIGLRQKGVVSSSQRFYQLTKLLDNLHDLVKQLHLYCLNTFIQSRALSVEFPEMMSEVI
Experimental: (§1) Receptor Binding Assay Information—In certain of the following examples, hormone receptor binding assays were used to determine the receptor binding activities of monomeric compound embodiments to androgen (AR), progesterone (PR), estrogen alpha (ERα) or glucocorticoid (GR) receptors. For AR, PR or ERα, the respective receptors are added to novel, tight-binding, selective ligands tagged with a fluorescent molecule, to form a receptor-ligand complex with a high polarization value. This complex is then added to individual monomeric compound embodiments that are contained in well plates. If the monomeric compound binds to the respective receptors, it displaces the fluorescent ligand from the complex, resulting in a low polarization value. In such embodiments, the monomeric compound is characterized as a competitor. […] In such embodiments, the monomeric compound is characterized as a noncompetitor. The shift in polarization value in the presence of the monomeric compound is used to determine the relative affinity of monomeric compound for the receptor.
(§2) For the androgen, progesterone, and estrogen receptor binding assays described herein, the preparation of reagents and test procedures is performed according to the manufacturer's instructions (Life Technologies, Carlsbad, Calif.). The plates are covered to protect the reagents from light and incubated at 20-25° C. for 4-8 hrs. The fluorescence polarization of the samples is measured with 485 nm excitation and 530 nm emission interference filters.
In this example, PR binding activity was assessed using the PR fluorescence polarization (FP) assay, which provides a sensitive and efficient method for high-throughput screening of potential PR ligands. The kit uses human PR ligand-binding domain tagged with GST [PR-LBD (GST)], and a tight-binding, selective fluorescent progesterone ligand (Fluormone™ PL Green) in a homogenous mix-and-read assay format. Progesterone receptor [PR-LBD (GST)] was added to a fluorescent progesterone ligand (Fluormone™ PL Green) to form a PR-LBD (GST)/Fluormone™ PL Green complex resulting in a high polarization value. This complex was then added to individual compound embodiments in 96-well plates. Competitors displaced the fluorescent Fluormone™ PL Green ligand from the PR-LBD (GST)/Fluormone™ PL Green complex, causing the fluorescent ligand to tumble rapidly during its fluorescence lifetime, resulting in a low polarization value. […] The shift in polarization value in the presence of compound embodiments was used to determine relative affinity of compound embodiments for PR-LBD (GST). The fluorescence polarization of the samples was measured with 485 nm excitation and 530 nm emission interference filters. Results for monomeric compound embodiments wherein the R^2 groups is not present (such as to test compound activity after R^2 cleavage) are provided in Table 4.

[3] = molecular target: T2, full-length, untagged, human estrogen receptors (ERα) (Homo sapiens, UniProt P03372); assay: ERα fluorescence polarization (FP) binding assay
T2 construct: insect cell-expressed, full-length, untagged, human estrogen receptors; purchased Life Technologies (Carlsbad, Calif.); host or cells: insect cells
Experimental: as §1
as §2, with “hrs.” for “hrs. The fluorescence polarization of the samples is measured with 485 nm excitation and 530 nm emission interference filters.”
For ERα data, the ERα fluorescence polarization (FP) assay was used, which provides a sensitive and efficient method for high-throughput screening of potential ER ligands. The kit uses insect cell-expressed, full-length, untagged, human estrogen receptors and a tight-binding, fluorescent estrogen ligand (Fluormone™ ES2) in a homogenous mix-and-read assay format. ERα was added to a fluorescent estrogen ligand to form an ERα/Fluormone™ ES2 complex. This complex was then added to individual compound embodiments contained in 96-well plates. […] The change in polarization value in the presence of a compound embodiment was used to determine relative affinity of a compound embodiment for ERα.

[4] = molecular target: T3, recombinant human aromatase (Homo sapiens, UniProt P11511); assay: Aromatization by recombinant human aromatase (CYP19+P450 reductase Supersomes); details: 10 μM, 37° C.
T3 sequence (P11511 1-503): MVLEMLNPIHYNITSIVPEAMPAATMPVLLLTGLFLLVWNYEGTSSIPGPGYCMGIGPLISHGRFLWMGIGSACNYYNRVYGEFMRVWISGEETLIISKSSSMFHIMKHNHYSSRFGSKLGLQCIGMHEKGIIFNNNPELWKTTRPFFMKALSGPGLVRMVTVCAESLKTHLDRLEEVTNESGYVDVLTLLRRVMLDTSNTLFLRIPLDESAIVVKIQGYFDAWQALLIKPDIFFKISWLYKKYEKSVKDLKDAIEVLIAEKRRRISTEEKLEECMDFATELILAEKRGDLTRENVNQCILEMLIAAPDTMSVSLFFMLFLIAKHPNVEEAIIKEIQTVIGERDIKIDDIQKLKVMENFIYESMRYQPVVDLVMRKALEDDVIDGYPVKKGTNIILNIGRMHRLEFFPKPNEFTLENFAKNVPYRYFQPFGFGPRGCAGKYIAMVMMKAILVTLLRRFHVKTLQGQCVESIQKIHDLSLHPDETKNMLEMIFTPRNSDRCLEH

[5] = tested on: castrated weanling rats; details: rat, in vivo
[6] = human liver S9, W/O NADPH, 1 μM
[7] = human liver S9, W/O NADPH, 10 μM
[8] = human liver S9, With NADPH, 1 μM
[9] = human liver S9, With NADPH, 10 μM

T2 sequence (P03372 whole entry): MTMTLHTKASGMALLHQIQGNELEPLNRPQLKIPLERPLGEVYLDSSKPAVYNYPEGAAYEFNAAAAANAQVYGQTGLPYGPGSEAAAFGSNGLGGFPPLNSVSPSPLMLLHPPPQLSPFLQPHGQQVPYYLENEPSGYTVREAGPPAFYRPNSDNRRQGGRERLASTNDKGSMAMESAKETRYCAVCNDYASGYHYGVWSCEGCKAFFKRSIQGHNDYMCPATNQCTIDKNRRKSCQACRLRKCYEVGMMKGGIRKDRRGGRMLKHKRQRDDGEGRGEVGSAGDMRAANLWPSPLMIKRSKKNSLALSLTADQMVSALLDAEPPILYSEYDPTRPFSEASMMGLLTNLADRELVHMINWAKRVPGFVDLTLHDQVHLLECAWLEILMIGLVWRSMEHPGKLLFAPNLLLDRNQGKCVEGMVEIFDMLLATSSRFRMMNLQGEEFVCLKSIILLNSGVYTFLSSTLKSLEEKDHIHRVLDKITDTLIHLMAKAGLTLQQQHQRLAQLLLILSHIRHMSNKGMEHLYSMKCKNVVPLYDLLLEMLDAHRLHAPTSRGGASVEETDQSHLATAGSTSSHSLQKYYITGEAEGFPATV

Molecule | % parent molecule remaining after 2 hours at 37° C. [1, 6] | % parent molecule remaining after 2 hours at 37° C. [1, 7] | % parent molecule remaining after 2 hours at 37° C. [1, 8] [%] | % parent molecule remaining after 2 hours at 37° C. [1, 9] [%] | % remaining at 60 min [4] [%] | other results
7-α-methylnortestosterone dodecylcarbonate [CDB-4884] | 89% | 75% | 75 | 82 |  | 
7α-t-Butyl Testosterone [CDB-4919] |  |  |  |  | 92.0 | IC50 ([2]; read-out: IC50 (nM) PR binding): 1400 nM; IC50 ([3]; fluorescence polarization, Fluormone ES2, read-out: IC50 (nM) ERα): 10400 nM
C[C@@H]1CC2=CC(=O)CC[C@@H]2[C@@H]2[C@@H]1[C@@H]1CC[C@H](O)[C@@]1(C)C[C@@H]2C [CDB-1321, dimethandrolone, reference compound] |  |  |  |  | 85.3 | 
C[C@@H]1CC2=CC(=O)CCC2C2C1C1CC[C@H](OC(=O)CCC(=O)O[C@H]3CCC4C5C(C6CCC(=O)C=C6C[C@H]5C)[C@@H](C)C[C@@]43C)[C@@]1(C)C[C@@H]2C (some centres unmarked) [CDB-4866] |  |  |  |  |  | AUC (Ventral Prostate) [5]: 1464 mg*week; duration of levator ani muscle weight increase (anabolic effects) [5]: sustained until Day 99 (Week 14); duration of ventral prostate weight increase (androgenic effects) [5]: sustained until Day 99 (Week 14); ventral prostate gland weights relative to vehicle [5]: increased
C[C@]12CCC(=O)C=C1CCC1C2CC[C@@]2(C)C1CC[C@@H]2OC(=O)CCC(=O)O[C@H]1CCC2C3CCC4=CC(=O)CC[C@]4(C)C3CC[C@@]21C (some centres unmarked) [CDB-4877] |  |  |  |  |  | AUC (Levator ani muscle) [5]: 2173 mg*week; AUC (Ventral Prostate) [5]: 524.4 mg*week; duration of ventral prostate weight increase (androgenic effects) [5]: sustained until Day 99 (Week 14); ventral prostate gland weights relative to vehicle [5]: increased
C#C[C@]1(OC(=O)CCCCCCCCCCC)CCC2C3CCC4=CC(=O)CCC4C3CC[C@@]21CC (some centres unmarked) [CDB-4880] | 78% | 86% | 54 | 76 |  | 
CCCCCCCCCCCCOC(=O)O[C@H]1CCC2C3CCC4=CC(=O)CC[C@]4(C)C3CC[C@@]21C (some centres unmarked) [CDB-4883, testosterone dodecylcarbonate] | 74% | 84% | 64 | 85 |  | 
C[C@@H]1CC2=CC(=O)CC[C@@H]2C2C1C1CC[C@H](OC(=O)CCNC(=O)CCC(=O)O[C@H]3CCC4C5C([C@@H](C)C[C@@]43C)[C@H]3CCC(=O)C=C3C[C@H]5C)[C@@]1(C)C[C@@H]2C (some centres unmarked) [CDB-4886] |  |  |  |  |  | duration of levator ani muscle weight increase (anabolic effects) [5]: sustained until Day 99 (Week 14)
C#C[C@]1(OC(=O)OC(C)(C)C)CCC2C3CCC4=CC(=O)CCC4C3CC[C@@]21CC (some centres unmarked) [CDB-4889] | 100≤ % | 100≤ % | 12 | 56 |  | 
CCCCCCCCCCCCOC(=O)O[C@H]1CCC2C3CCC4=CC(=O)CCC4=C3[C@@H](C)C[C@@]21C (some centres unmarked) [CDB-4892] | 88% | 77% | 75 | 82 |  | 
CC1CC2=CC(=O)CCC2(C)C2CCC3(C)C(O)CCC3C12 (stereo not drawn) [CDB-4911, 7β-methyl testosterone] |  |  |  |  | 3.4 | IC50 ([2]; read-out: IC50 (nM) PR binding): 415 nM; % remaining at 15 min [4]: 62.3%; % remaining at 30 min [4]: 33.5%
CC[C@@H]1CC2=CC(=O)CC[C@]2(C)C2CC[C@@]3(C)C(CC[C@@H]3O)C21 (stereo partly drawn) [CDB-4918, 7α-ethyl testosterone] |  |  |  |  | 0.1 | IC50 ([2]; IC50 (nM) PR binding): 672 nM; IC50 [3]: 10500 nM; % remaining at 15 min [4]: 33.0%; % remaining at 30 min [4]: 0.2%
CC12CCC(=O)C=C1CC(c1ccccc1)C1C2CCC2(C)C(O)CCC12 (stereo not drawn) [CDB-4920, 7α-Phenyl Testosterone] |  |  |  |  | 63.6 | IC50 ([2]; IC50 (nM) PR binding): 463 nM; IC50 [3]: 13500 nM
CC12CCC(=O)C=C1CC(c1ccccc1)C1C2CCC2(C)C(O)CCC12 (stereo not drawn) [CDB-4921, 7β-Phenyl Testosterone] |  |  |  |  | 62.5 | IC50 ([2]; read-out: IC50 (nM) PR binding): 787 nM
CCC1CC2=CC(=O)CCC2(C)C2CCC3(C)C(O)CCC3C12 (stereo not drawn) [CDB-4924, 7β-ethyl testosterone] |  |  |  |  | 0.3 | IC50 ([2]; read-out: IC50 (nM) PR binding): 842 nM; % remaining at 15 min [4]: 58.2%; % remaining at 30 min [4]: 25.4%
DMA linolate [CDB-4895] | 51% | 62% | 55 | 60 |  | 
DMA oleate [CDB-4893] | 60% | 55% | 54 | 51 |  | 

From patent US20230227492A1 (priority 2020, published 2023)
